What is called IC50 is the concentration that inhibits the measured activity by half. A higher IC50 goes with lower potency.

The target of the test is hcGAS (Homo sapiens, UniProt Q8N884). The experiment in a line: hcGAS LCMS assay (direct measurement of cGAMP production). It counts as biochemical. The note with it: 0.5 nM hcGAS, 100 μM ATP, 100 μM GTP, 25 nM dsDNA, 4 h incubation. The protocol: cGAS catalyzes the cyclization of ATP and GTP to produce cGAMP, which is the activating ligand of STING. Human cGAS (hcGAS) inhibition can thus be quantified by measuring how much cGAMP is formed either indirectly, by monitoring ATP-depletion as in the hcGAS Kinase-Glo assay (as described below), or directly, such as using the hcGAS LCMS assay (as described below).
hcGAS, sequence (Q8N884 whole entry): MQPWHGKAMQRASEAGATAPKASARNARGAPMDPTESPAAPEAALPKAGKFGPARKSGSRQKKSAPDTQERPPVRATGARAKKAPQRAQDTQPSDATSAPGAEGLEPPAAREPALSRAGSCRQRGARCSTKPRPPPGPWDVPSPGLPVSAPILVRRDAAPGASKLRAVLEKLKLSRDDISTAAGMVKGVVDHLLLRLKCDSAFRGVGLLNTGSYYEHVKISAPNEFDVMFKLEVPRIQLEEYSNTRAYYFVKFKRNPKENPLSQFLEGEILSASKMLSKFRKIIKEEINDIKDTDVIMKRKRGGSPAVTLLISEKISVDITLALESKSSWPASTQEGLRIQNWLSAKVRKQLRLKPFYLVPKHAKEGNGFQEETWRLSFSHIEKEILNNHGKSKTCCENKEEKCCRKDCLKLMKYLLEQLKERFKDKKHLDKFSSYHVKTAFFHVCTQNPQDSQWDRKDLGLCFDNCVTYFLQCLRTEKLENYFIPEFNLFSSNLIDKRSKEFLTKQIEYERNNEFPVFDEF
Compounds were tested for their h-cGAS inhibition activity using direct measurement of cGAMP production by LC/MS. Briefly, compounds were incubated with enzyme and substrates for 4 hours (see Table C), before the reaction was stopped with 3 volumes of 70/30 Acetonitrile/H2O mix containing 0.15 mM cGAMP-^13C10^5N5 as internal standard and mixed for […]. After centrifugation (3700 rpm, 10 min, 10° Celsius), […] of each reaction was collected and mixed to equal volume of Acetonitrile. Samples were then analyzed on Qexective (Column: XBridge BEH Amide Column, 130 Å, 3.5 μm, 3 mm×50 mm, Mobile phase A: 10 mM Ammonium acetate in 95/5% H2O/Acetonitrile (0.5% DMSO), Mobile phase B: Acetonitrile (0.5% DMSO).
The results of the assay, expressed as IC50 values, are reported in Table D with the following designations: A represents an IC50 value<0.005 μM; B represents an IC50 value≥0.005 μM and <0.02 μM, C represents an IC50 value≥0.02 μM and <0.06 μM; D represents an IC50 value≥0.06 and <0.2 μM; E represents an IC50 value≥0.2.
In turn, `COc1c(N[C@@H]2Cc3ccccc3[C@@H]2O)cc(C(=O)Nc2nnc(-n3nccc3C)s2)oc1=O` (racemic) [Rac-81, 4-(((1S,2R)-1-hydroxy-2,3-dihydro-1H-inden-2-yl)amino)-3-methoxy-N-(5-(5-methyl-1H-pyrazol-1-yl)-1,3,4-thiadiazol-2-yl)-2-oxo-2H-pyran-6-carboxamide] came in with an IC50 of at least 200 nM. The figure for `COc1c(NC2CCCC2(C)O)cc(C(=O)Nc2nnc(-n3nccc3C)s2)oc1=O` (racemic) [Rac-167, 4-((2-hydroxy-2-methylcyclopentyl)amino)-3-methoxy-N-(5-(5-methyl-1H-pyrazol-1-yl)-1,3,4-thiadiazol-2-yl)-2-oxo-2H-pyran-6-carboxamide] is under 5 nM. In turn, `COCCOc1c(N[C@@H]2CCC[C@@H]2O)cc(C(=O)Nc2nnc(-c3c(Cl)ccn3C)s2)oc1=O` [Compound 86, N-(5-(3-chloro-1-methyl-1H-pyrrol-2-yl)-1,3,4-thiadiazol-2-yl)-4-(((1R,2S)-2-hydroxycyclopentyl)amino)-3-(2-methoxyethoxy)-2-oxo-2H-pyran-6-carboxamide] returned a concentration for half-maximal inhibition (IC50) of under 5 nM. To `COC[C@]1(Nc2cc(C(=O)Nc3nnc(-n4nccc4C)s3)oc(=O)c2OC)CCOC1` (single isomer, unassigned) [Compound 101*] belongs 5 to 20 nM; to `COc1c(NC[C@H]2CCO2)cc(C(=O)Nc2nnc(-n3nccc3C)s2)oc1=O` [Compound 118, (R)-3-methoxy-N-(5-(5-methyl-1H-pyrazol-1-yl)-1,3,4-thiadiazol-2-yl)-4-((oxetan-2-ylmethyl)amino)-2-oxo-2H-pyran-6-carboxamide], 5 to 20 nM. The figure for `COCCOc1c(N[C@H]2CCC[C@H]2O)cc(C(=O)Nc2nnc(-c3c(Cl)ccn3C)s2)oc1=O` [Compound 85, N-(5-(3-chloro-1-methyl-1H-pyrrol-2-yl)-1,3,4-thiadiazol-2-yl)-4-(((1S,2R)-2-hydroxycyclopentyl)amino)-3-(2-methoxyethoxy)-2-oxo-2H-pyran-6-carboxamide] is 5 to 20 nM; for `COc1c(N2CCC[C@H]2CC#N)cc(C(=O)Nc2nnc(-n3nccc3C)s2)oc1=O` [Compound 175, (S)-4-(2-(cyanomethyl)pyrrolidin-1-yl)-3-methoxy-N-(5-(5-methyl-1H-pyrazol-1-yl)-1,3,4-thiadiazol-2-yl)-2-oxo-2H-pyran-6-carboxamide] it is 5 to 20 nM. To `COc1c(N[C@@H]2CC[C@@H]2OCC(F)F)cc(C(=O)Nc2nnc(-n3nccc3C)s2)oc1=O` (single isomer, unassigned) [173*] belongs 20 to 60 nM; to `COc1c(N(CCO)CCO)cc(C(=O)Nc2nnc(-n3nccc3C)s2)oc1=O` (single isomer, unassigned) [Compound 158, 4-(bis(2-hydroxyethyl)amino)-3-methoxy-N-(5-(5-methyl-1H-pyrazol-1-yl)-1,3,4-thiadiazol-2-yl)-2-oxo-2H-pyran-6-carboxamide], 60 to 200 nM. Molecule `COc1c(N[C@H]2CCN(C)C2=O)cc(C(=O)Nc2nnc(-n3nccc3C)s2)oc1=O` (single isomer, unassigned) [71*] showed a half-inhibitory concentration (IC50) of 5 to 20 nM. To `COc1c(NCCOCC(F)F)cc(C(=O)Nc2nnc(-n3nccc3C)s2)oc1=O` [Compound 17, 4-((2-(2,2-difluoroethoxy)ethyl)amino)-3-methoxy-N-(5-(5-methyl-1H-pyrazol-1-yl)-1,3,4-thiadiazol-2-yl)-2-oxo-2H-pyran-6-carboxamide] belongs 20 to 60 nM; to `COCCNc1cc(C(=O)Nc2nnc(-c3c(Cl)nsc3Cl)s2)oc(=O)c1OC` [Compound 156, N-(5-(3,5-dichloroisothiazol-4-yl)-1,3,4-thiadiazol-2-yl)-3-methoxy-4-((2-methoxyethyl)amino)-2-oxo-2H-pyran-6-carboxamide], 60 to 200 nM.

In turn, `COc1c(N[C@@H]2CCC[C@@H]2C#N)cc(C(=O)Nc2nnc(-n3nccc3C)s2)oc1=O` (single isomer, unassigned) [Compound 73] registered an IC50 of under 5 nM. `COc1c(NC[C@@H]2CCO2)cc(C(=O)Nc2nnc(-n3nccc3C)s2)oc1=O` [Compound 93, (S)-3-methoxy-N-(5-(5-methyl-1H-pyrazol-1-yl)-1,3,4-thiadiazol-2-yl)-4-((oxetan-2-ylmethyl)amino)-2-oxo-2H-pyran-6-carboxamide] yielded a concentration for half-maximal inhibition (IC50) of 20 to 60 nM. As to `COc1c(N[C@@H]2CCC[C@@H]2O)cc(C(=O)Nc2nnc(-c3c(Cl)ccn3C)s2)oc1=O` [Compound 197, N-(5-(3-chloro-1-methyl-1H-pyrrol-2-yl)-1,3,4-thiadiazol-2-yl)-4-(((1R,2S)-2-hydroxycyclopentyl)amino)-3-methoxy-2-oxo-2H-pyran-6-carboxamide], the 50% inhibitory concentration (IC50) fell in the range of 5 to 20 nM.

`COc1c(N[C@H]2CC[C@H]2OC)cc(C(=O)Nc2nnc(-n3nccc3C)s2)oc1=O` (single isomer, unassigned) [123*] displayed an IC50 of 5 to 20 nM.

On to `COCCNc1cc(C(=O)Nc2nnc(-c3ccsc3Cl)s2)oc(=O)c1OC` [Compound 135, N-(5-(2-chlorothiophen-3-yl)-1,3,4-thiadiazol-2-yl)-3-methoxy-4-((2-methoxyethyl)amino)-2-oxo-2H-pyran-6-carboxamide], for which the IC50 was in the range of 20 to 60 nM. Regarding `COC[C@@H]1CCN1c1cc(C(=O)Nc2nnc(-n3nccc3C)s2)oc(=O)c1OC` [Compound 95, (S)-3-methoxy-4-(2-(methoxymethyl)azetidin-1-yl)-N-(5-(5-methyl-1H-pyrazol-1-yl)-1,3,4-thiadiazol-2-yl)-2-oxo-2H-pyran-6-carboxamide], the IC50 lay within 5 to 20 nM. `COc1c(N(C)[C@@H]2CCC[C@@H]2OC)cc(C(=O)Nc2nnc(-n3nccc3C)s2)oc1=O` (racemic) [Rac-153, 3-methoxy-4-(((cis)-2-methoxycyclopentyl)(methyl)amino)-N-(5-(5-methyl-1H-pyrazol-1-yl)-1,3,4-thiadiazol-2-yl)-2-oxo-2H-pyran-6-carboxamide] yielded an IC50 of 5 to 20 nM. On to `COCCNc1cc(C(=O)Nc2nnc(-c3sccc3C#N)s2)oc(=O)c1OC` [Compound 145, N-(5-(3-cyanothiophen-2-yl)-1,3,4-thiadiazol-2-yl)-3-methoxy-4-((2-methoxyethyl)amino)-2-oxo-2H-pyran-6-carboxamide], for which the IC50 was at least 200 nM. Turning to `COc1c(NC23CC(O)(C2)C3)cc(C(=O)Nc2nnc(-n3nccc3C)s2)oc1=O` [Compound 126, 4-((3-hydroxybicyclo[1.1.1]pentan-1-yl)amino)-3-methoxy-N-(5-(5-methyl-1H-pyrazol-1-yl)-1,3,4-thiadiazol-2-yl)-2-oxo-2H-pyran-6-carboxamide], the half-maximal inhibitory concentration (IC50) lay within 5 to 20 nM.

For the molecule `COc1c(N[C@@H]2c3ccccc3C[C@@H]2OC)cc(C(=O)Nc2nnc(-n3nccc3C)s2)oc1=O` (racemic) [Rac-164, 3-methoxy-4-(((1R,2S)-2-methoxy-2,3-dihydro-1H-inden-1-yl)amino)-N-(5-(5-methyl-1H-pyrazol-1-yl)-1,3,4-thiadiazol-2-yl)-2-oxo-2H-pyran-6-carboxamide], the concentration for half-maximal inhibition (IC50) lay in the range of 5 to 20 nM. To `COc1c(NC23CCC(CC2)CC3)cc(C(=O)Nc2nnc(-n3nccc3C)s2)oc1=O` [Compound 18, 4-(bicyclo[2.2.2]octan-1-ylamino)-3-methoxy-N-(5-(5-methyl-1H-pyrazol-1-yl)-1,3,4-thiadiazol-2-yl)-2-oxo-2H-pyran-6-carboxamide] belongs under 5 nM.

Source of the values: patent US20240270740A1, “INHIBITORS OF CYCLIC GMP-AMP SYNTHASE AND USES THEREOF” (Ventus Therapeutics U.S., Inc., priority 2022, published 2024).
